Reference: US6399542B1, “Alkoxyimino-substituted bicyclic compounds compositions containing the same and method of making such compounds” (Agro-Kanesho Co., Ltd., priority 1997, dated 2002)
Like-named read-outs stand apart in the source and are kept apart here.

Key:
Rhizoctonia solani = experiment: Effect on Rice sheath blight (preventive spray test); conditions: 10 days after inoculation
Protocol: An emulsion of a compound of the present invention prepared in Preparation Example 2 was diluted with water and uniformly sprayed on 5 rice plant seedlings (variety: Koshihikari) in 4.5-leaf stage in each plastic pot having a diameter of 6 cm, with a spray gun. One day after the spraying, the seedlings were bundled at the second sheath with a string. Colonies of Rhizoctonia solani previously cultured in PSA culture medium were bored with a cork borer to obtain pieces having a diameter of 4 mm. The piece was put in the bundle, and kept in a high-humidity room at 25° C. until the examination. Ten days after the inoculation, the degree of the disease was examined, and the preventive rate (effect of inhibiting the disease) was calculated on the basis of the following standard:
Preventive rate=[1-D′/C′]×100
C′: Severity in untreated section
D′: Severity in treated section.

[1] = test system: Psecidoperonospora cubensis; experiment: Effect on Cucumber downy mildew (preventive spray test); assay type: in vivo; conditions: 7 days after inoculation
Erysiphe graminis = experiment: Effects on Barley powdery mildew (preventive spray test); assay type: in vivo; conditions: lesions counted seven days after inoculation
Puccinia recondita = experiment: Effect on Wheat brown rust (preventive spray test); assay type: in vivo; conditions: 7 days after inoculation
Chochliobolus miyabeanus = experiment: Effect on Rice brown spot (preventive spray test); assay type: in vivo; conditions: 7 days after inoculation
Pyricularia oryzae = assay type: in vivo; conditions: Rice blast, 7 days after inoculation
Puccinia recondite = experiment: Penetration and translocation in wheat leaves (covered leaf tip, brown rust); assay type: in vivo; conditions: conc. of active ingredient 200 ppm
Phytophthora infestans = assay type: in vivo; conditions: Tomato late blight, 5 days after inoculation
[2] = test system: Pseudoperonospora cubenis; experiment: Penetration and translocation in cucumber leaf (drop on back of leaf, downy mildew); assay type: in vivo; set-up: key: 3: At least 40% of the area of the leaf was free from the disease.; 20 to 40% of the area of the leaf was free from the disease.; 1: An area larger than the spot of the drop but smaller than 20% of the area of the leaf was free from the disease.; 0: Only the spot of the drop was free from the disease; conditions: 10 μl drop on back of leaf, conc. of active ingredient 200 ppm, disease-free area 5 days after the spraying
Protocol: Four points were marked at random on the first leaf of each cucumber seedling (variety: Shogoin aonaga fushinari) in two-leaf stage in each pot having a diameter of 6 cm. […] The leaf was kept in a greenhouse for one day and then uniformly inoculated with a zoospore suspension of Pseudoperonospora cubenis by means of a spray gun, then left to stand in a high-humidity room at 24° C. for 24 hours, and kept in a greenhouse. The area of the disease-free part 5 days after the spraying was represented in terms of the index.
3: At least 40% of the area of the leaf was free from the disease.
2: 20 to 40% of the area of the leaf was free from the disease.
1: An area larger than the spot of the drop but smaller than 20% of the area of the leaf was free from the disease.
0: Only the spot of the drop was free from the disease.

Botrytis cinerea = experiment: Effect on Cucumber gray mold (cotyledon paper disc test); assay type: in vivo; conditions: 3 days after inoculation
Spodoptera litura = experiment: Effect on Spodoptera litura (chinese cabbage leaf spray); conditions: Test Example 12
Protocol: 500 ppm of a compound of the present invention in the form of an emulsion diluted with water was sprayed on a leaf of chinese cabbage seedling in 3- to 4-leaf stage. After air-drying, the leaf was placed in a plastic vessel having a size of 21 cm(length)×13 cm(width)×3 cm (depth). Ten larvae of Spodoptera litura of the third instar were put therein. The lid was put on the vessel, which was then left in a room kept at 26° C. for 48 hours and then the numbers of the living imagoes and dead ones were counted, and the rate of dead imagoes was calculated (repetition: twice).

Tetranychus kanzawai = experiment: Effect on Tetranychus kanzawai (green bean leaf spray); conditions: Test Example 11
Protocol: A piece (3 cm×5 cm) of green bean leaf was placed with the backside up, on a filter paper wet with water so as to prevent the leaf from drying, and inoculated with 10 female imagoes of Tetranychus kanzawai per a leaf. 24 hours after the inoculation, 500 ppm of a compound of the present invention in the form of an emulsion diluted with water was sprayed thereon. After air-drying, the piece was left to stand in a room kept at 26° C. for 24 hours and then the numbers of the living imagoes and dead ones were counted, and the rate of dead imagoes was calculated (repetition: twice).

Plutella xylostella = experiment: Effect on Plutella xylostella (Chinese cabbage leaf spray); conditions: Test Example 13
Protocol: 500 ppm or 50 ppm of a compound of the present invention in the form of an emulsion diluted with water was sprayed on a leaf of Chinese cabbage seedling in 3- to 4-leaf stage. After air-drying, the leaf was placed in a plastic vessel having a size of 9 cm (inner diameter)×6.5 cm (depth). Ten larvae of Plutella xylostella of the third instar were put therein. The lid was put on the vessel, which was then left in a room kept at 26° C. for 48 hours and then the numbers of the living imagoes and dead ones were counted, and the rate of dead imagoes was calculated (repetition: twice).

Aphis gossypii = experiment: Effect on Aphis gossypii (cucumber seedling spray); conditions: Test Example 15
Text: 5 or 6 imagoes of Aphis gossypii were released on a cucumber seedling of 1- or 2-leaf stage in a pot. Two days after, the larvae were confirmed and the imagoes were removed. Then 500 ppm or 50 ppm of a compound of the present invention in the form of an emulsion diluted with water was sprayed on the cucumber seedling. After air-drying, the leaves were cut and put in a plastic vessel having a size of 9 cm (inner diameter)×6.5 cm (depth). The lid was put on the vessel, which was then left in a room kept at 26° C. for 48 hours and then the numbers of the living imagoes and dead ones were counted, and the rate of dead imagoes was calculated (repetition: twice).

Nephotettix cincticeps = experiment: Effect on Nephotettix cincticeps (rice seedling immersion); conditions: Test Example 14
Protocol: Rice plant seedlings were immersed in 500 ppm or 50 ppm of a compound of the present invention in the form of an emulsion diluted with water for 10 seconds. After air-drying, the root of each seedling was covered with a wet absorbent cotton and the seedling was put in a test tube. Ten larvae of Nephotettix cincticeps of the second instar were put therein. The opening of the test tube was covered with a gauze, and the test tube was then left in a room kept at 26° C. for 48 hours and then the numbers of the living imagoes and dead ones were counted, and the rate of dead imagoes was calculated (repetition: twice).

[3] = conc. of active ingredient 20 ppm
[4] = conc. of active ingredient 100 ppm
[5] = conc. of active ingredient 4 ppm

SMILES	Preventive rate (%) (Rhizoctonia solani; [3])	Preventive rate (%) (Rhizoctonia solani; [4])	Preventive rate (%) [1, 3] [%]	Preventive rate (%) [1, 4] [%]	Preventive rate (%) (Erysiphe graminis; [3])	Preventive rate (%) (Erysiphe graminis; [4])	Preventive rate (%) (Puccinia recondita; [3])	Preventive rate (%) (Puccinia recondita; [4])	Preventive rate (%) (Chochliobolus miyabeanus; [3])	Preventive rate (%) (Chochliobolus miyabeanus; [4])	Preventive rate (%) (Pyricularia oryzae; [3])	Preventive rate (%) (Pyricularia oryzae; [4])	Number of lesions formed within the mark to the tip (Puccinia recondite)	Preventive rate (%) (Puccinia recondite)	Rate of the translocation perfect preventive conc. (%) (Puccinia recondite)	Preventive rate (%) (Phytophthora infestans; [3])	Preventive rate (%) (Phytophthora infestans; [4])	Index [2]	Preventive rate (%) (Botrytis cinerea; [3])	Preventive rate (%) (Botrytis cinerea; [4])	also measured
CON=C1COc2cc(OCc3ccccc3/C(=N\OC)C(=O)OC)ccc21 [a-4, (E) methyl methoxyimino-[2-(3-methoxyimino-2,3-dihydrobenzofuran-6-yloxymethyl)-phenyl]acetate]	93	92	94	94	93	100	94	98	75	80	86	90	–	–	–	–	–	–	–	–	melting point: 108 to 110 °C
CNC(=O)/C(=N/OC)c1ccccc1COc1ccc2c(c1)OCC2=NOC [a-5, (E) methoxyimino-[2-(3-methoxyimino-2,3-dihydro-benzofuran-6-yloxymethyl)phenyl]-N-methyl-acetamide]	70	84	88	94	95	100	100	100	89	96	90	96	0	100	100	97	100	3 (At least 40% of the area of the leaf was free from the disease.)	–	–	melting point: 143 to 145 °C
CNC(=O)/C(=N/OC)c1ccccc1COc1ccc2c(c1C)OCC2=NOC [a-16]	50	92	100	100	100	100	100	100	95	98	89	96	0	100	100	97	100	3 (At least 40% of the area of the leaf was free from the disease.)	84	87	Preventive rate (%) (Phytophthora infestans; [5]): 91%; Preventive rate (%) (Botrytis cinerea; [5]): 42%; Preventive rate (%) [1, 5]: 100%; Preventive rate (%) (Puccinia recondita; [5]): 100%; Preventive rate (%) (Chochliobolus miyabeanus; [5]): 75%; Preventive rate (%) (Pyricularia oryzae; [5]): 86%
CNC(=O)C(=NOC)c1ccccc1COc1ccc2c(c1)OCCC2=NOC [c-5]	39	89	100	100	–	–	96	100	35	100	97	99	0	100	100	88	94	3 (At least 40% of the area of the leaf was free from the disease.)	–	–	–
CNC(=O)/C(=N/OC)c1ccccc1COc1ccc2c(c1)CCC2 [comparative compound (1), 2-methoxyimino-2-[2-(indane-5-yloxymethyl)-phenyl]-acetic acid methylamide, reference compound]	0	24	30	81	17	99	86	99	0	64	48	63	48	23	4.4	63	94	0	25	44	effect of controlling insect pests (Spodoptera litura): did not exhibit the effect of controlling insect pests; effect of controlling insect pests (Tetranychus kanzawai): did not exhibit the effect of controlling insect pests; effect of controlling insect pests (Plutella xylostella): did not exhibit the effect of controlling insect pests; effect of controlling insect pests (Aphis gossypii): did not exhibit the effect of controlling insect pests; effect of controlling insect pests (Nephotettix cincticeps): did not exhibit the effect of controlling insect pests
CO/N=C(\C(=O)OC)c1ccccc1COc1ccc2c(c1)CCCC2 [comparative compound (2), 2-methoxyimino-2-[2-(5,6,7,8-tetrahydronaphthalene-2-yloxymethyl)phenyl]-methylacetate, reference compound]	0	0	70	93	59	100	70	100	20	85	49	55	–	–	–	38	100	–	11	21	effect of controlling insect pests (Spodoptera litura): did not exhibit the effect of controlling insect pests; effect of controlling insect pests (Tetranychus kanzawai): did not exhibit the effect of controlling insect pests; effect of controlling insect pests (Plutella xylostella): did not exhibit the effect of controlling insect pests; effect of controlling insect pests (Aphis gossypii): did not exhibit the effect of controlling insect pests; effect of controlling insect pests (Nephotettix cincticeps): did not exhibit the effect of controlling insect pests
CNC(=O)C(=NOC)c1ccccc1COc1ccc2c(c1)CCC2=NOC [e-5]	–	–	100	100	95	100	99	100	84	90	97	100	0	100	100	95	98	3 (At least 40% of the area of the leaf was free from the disease.)	–	–	–
